Experimental data: patent US20250302816A1, “DISRUPTION OF EPITHELIAL BARRIERS FOR MOLECULAR DELIVERY ENHANCEMENT OR EXTRACTION OF EXTRACELLULAR FLUIDS” (The University of Nottingham, priority 2022, published 2025)

Assays:
Assay type in all cases: cell-based, human
Calu-3 cell layers [1] = assay: FD4 permeability and TEER of polarised Calu-3 cell layers
Calu-3 cell layer = assay: Delivery of siRNA across Calu-3 cell layer (Transwell); settings: 200 μM
Method: FIG. 10: Delivery of siRNA (19 bases) across Calu-3 cell layer is enhanced in the presence of 30C12 HSL (200 μM) assessed as recovered fraction from the basolateral chamber of a Transwell.

Calu-3 cells = assay: MTS assay of metabolic activity / cell viability; settings: 5 nM to 200 μM, 6 hours
Method: To assess 3OC12-HSL and C7 PQS molecules cytotoxicity on cell viability of Calu-3 cell layers and to monitor short-term cytotoxicity during experiments, Calu-3 cells were treated with 3OC12-HSL and C7 PQS, at concentrations 5 nM, 1 μM, 50 μM, 100 μM and 200 μM, for 6 hours. At the end of the treatment, cell viability (through measuring metabolic activity) of cultures was determined by chromogenic MTS assay.
The viability of Calu-3 cells was determined by a chromogenic MTS method based on the measuring of mitochondrial respiration, assessed by the reduction of 3-(4,5-dimethylthiazol-2-yl)-5-(3-carboxymethoxyphenyl)-2-(4-sulfophenyl)-2H-tetrazolium to formazan. Calu-3 cells were cultured in a 96-well plate (CellTiter 96® Aqueous, Promega) at a density of 10^4 cells per well and incubated at 37° C., 5% CO2 for 24 hours. After 24 hours, the medium was replaced with 100 μl of test compounds dissolved in HBSS and then cells were incubated for 6 hours. HBSS and Triton X-100 (0.1% v/v in HBSS) were used as the negative and positive controls respectively. Bathing solutions were then aspirated and cells washed with PBS. Then culture medium (100 μl at 37° C.) plus MTS reagent (20 μl) were added into each well and cells were incubated for 2 hours. Absorbance at 492 was measured using a Dynex absorbance microplate reader (Dynex Technologies, USA) and converted into a percentage metabolic rate.

Calu-3 cell layers [2] = settings: 3OC12-HSL 200 μM
Method: (§1) FIG. 2: Macromolecular therapeutics transported across Calu-3 cell layers in the absence (dashed line) and presence (line) of 3OC12-HSL transported into the basolateral chamber over a period of five hours. Permeability experiments were initiated by applying 0.5 ml of the solutions (250 μg/ml Aflibercept/Bevacizumab/or Doxorubicin diluted in HBSS/HEPES) to the apical side of the cells (donor compartment of the Transwell) with or without 3OC12-HSL (200 μM). Drug permeability was determined by sampling the basolateral solution at regular time intervals. Data points are expressed as means±SEM, derived from three replicates in triplicate. p values of <0.05 were considered statistically significant. *, ** and *** denote p<0.05, p<0.01 and p<0.001, respectively.
(§2) Calu-3 cells obtained from American Type Culture Collection, USA were cultured using Dulbecco's Modified Eagle Medium (DMEM) supplemented with penicillin (100 U/mL), streptomycin (0.1 mg/mL), amphotericin (0.25 μg/mL), non-essential amino acids (NEM, 1%) and Fetal Bovine Serum (FBS, 10% v/v, Sigma-Aldrich, UK). The human-derived RPE cell line ARPE-19 was obtained from American Type Culture Collection. […]
(§3) Three polarised epithelial in-vitro tissue models, including lung epithelium (Calu-3), retinal pigment epithelium (ARPE-19) and intestinal epithelial (Caco-2) were used to study the efficiency of 200 μM 3OC12-HSL as a paracellular permeability enhancer for three different drugs: bevacizumab, aflibercept and doxorubicin (applied concentrations 250 μg/mL). The amount of drugs transported was determined via the conversion of fluorescence intensity to amount (μg or ng), using calibration curves constructed via serial standard dilutions. […]
(§4) Permeability experiments were initiated by applying 0.5 mL of the test solutions to the apical side of the cells (donor compartment of the Transwell®). […] Drug permeability was determined by sampling the basolateral solution at regular time intervals. […]

Caco-2 cell layers = settings: 3OC12-HSL 200 μM
Method: as §1, with “FIG. 3: Macromolecular therapeutics” for “FIG. 2: Macromolecular therapeutics”, “transported across Caco-2 cell layers” for “transported across Calu-3 cell layers”, “of the test solutions (250” for “of the solutions (250”
as §2, §3, §4

ZO-1 = ZO-1 immunostaining and confocal microscopy of Calu-3 cell layers; settings: 200 μM, one hour, vs vehicle 0.15% DMSO
Method: To visualise the effect of 3OC12-HSL and C7 PQS on tight junction integrity in Calu-3 cell layers, ZO-1, immunostaining and confocal microscopy was performed on cell layers treated by 200 μM 3OC12-HSL and C7 PQS and control (0.15% DMSO in HBSS) for one hour. Confluent cell monolayers were washed with PBS and fixed in 4% paraformaldehyde in PBS for approximately 10 min at room temperature. Cells were then washed 3 times with PBS and permeabilised by incubating with Triton X-100 (0.1% v/v in PBS) for 10 min. Cells were then washed with PBS, followed by the application of 1% BSA/PBS for approximately 1 hour. Thereafter, BSA/PBS solution was aspirated and replaced with mouse, anti-human ZO-1 (primary) antibody, diluted in 1% BSA/PBS to a final concentration of 100 μg/ml. Cell samples were incubated with the primary antibody for 2 hours. The primary antibody solution was then removed and cells washed with PBS (5 times). FITC-labelled goat, anti-mouse (secondary) antibody, diluted according to manufacturer's instructions in 1% BSA/PBS was then applied to the cells for 1 hour. The secondary antibody solution was then aspirated and cells washed with PBS three times. […]

[3] = doxorubicin 250 μg/ml, after 5 hours

How did the “paracellular passage / flux of FD4 from apical to basolateral chamber” value (Calu-3 cell layers [1]; 200 μM (3OC12-HSL: 200 μM or 1 μM)) turn out when `CCCCCCCCCC(=O)CC(=O)N[C@H]1CCOC1=O` [Agent 3OC12-HSL, N-(3-oxododecanoyl) homoserine lactone] was run?
The value was “increased paracellular passage of FD4”.

What about the “effect on TEER compared to vehicle only” value (Calu-3 cell layers [1]; 200 μM or 1 μM in 0.15% DMSO in HBSS, p<0.001) of the same compound?
Its value is “reduced TEER significantly”.

And the “time after which TEER started increasing / cell layer integrity began to recover” value (Calu-3 cell layers [1]; during exposure)?
The value was 4 h.

And the “TEER after 7 hours” value (Calu-3 cell layers [1]; recovery during exposure)?
The value was 520+/−20 Ω·cm^2.

And the “time at which flux of FD4 peaked” value (Calu-3 cell layers [1]; then continued increasing slowly for four hours)?
The value was 30 min.

And the “delivery of siRNA (19 bases) across cell layer, recovered fraction from basolateral chamber” value (Calu-3 cell layer)?
Its value is “enhanced”.

What about the “cytotoxic effect on cell viability within epithelial layers” value (Calu-3 cells) of the same compound?
The value was “do not have an adverse cytotoxic effect”.

What about the “enhancement of aflibercept transport by 3OC12-HSL” value (Calu-3 cell layers [2]; aflibercept 250 μg/ml) of the same compound?
The value was 18 fold.

And the “enhancement of bevacizumab transport by 3OC12-HSL” value (Calu-3 cell layers [2]; bevacizumab 250 μg/ml)?
The value was 10 fold.

And the “enhancement of doxorubicin transport by 3OC12-HSL” value (Calu-3 cell layers [2]; [3])?
The value was 17 fold.

And the “enhancement of aflibercept transport by 3OC12-HSL” value (Caco-2 cell layers; aflibercept 250 μg/ml)?
The value was 11 fold.

What about the “enhancement of bevacizumab transport by 3OC12-HSL” value (Caco-2 cell layers; bevacizumab 250 μg/ml) of the same compound?
Its value is 8 fold.

And the “enhancement of doxorubicin transport by 3OC12-HSL” value (Caco-2 cell layers; [3])?
Its value is 19 fold.

And the “ZO-1 distribution at tight junctions” value (ZO-1)?
Its value is “considerable dislocation of ZO-1 proteins”.
